From article PMC6210068 (ACS Omega, 2018) come the findings set out here.

Each structure is given as a SMILES string. Where two headings read alike, the source gives them in different places.

One experiment concerns the target T1, hA3AR (Homo sapiens, UniProt P0DMS8).
T1 sequence (P0DMS8 1-318): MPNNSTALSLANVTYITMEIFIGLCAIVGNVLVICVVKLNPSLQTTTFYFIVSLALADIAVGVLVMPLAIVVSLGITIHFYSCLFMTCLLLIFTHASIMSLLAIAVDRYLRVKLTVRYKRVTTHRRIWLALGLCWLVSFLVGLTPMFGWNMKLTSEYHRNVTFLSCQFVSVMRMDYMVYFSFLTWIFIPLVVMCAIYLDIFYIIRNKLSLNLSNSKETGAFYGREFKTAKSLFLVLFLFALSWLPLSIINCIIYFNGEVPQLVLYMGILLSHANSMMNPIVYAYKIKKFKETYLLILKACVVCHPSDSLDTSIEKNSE
The experiment can be described thus: A3AR binding.

For a further experiment, the target named is T2, hA1AR (Homo sapiens, UniProt P30542).
T2 sequence (P30542 1-326): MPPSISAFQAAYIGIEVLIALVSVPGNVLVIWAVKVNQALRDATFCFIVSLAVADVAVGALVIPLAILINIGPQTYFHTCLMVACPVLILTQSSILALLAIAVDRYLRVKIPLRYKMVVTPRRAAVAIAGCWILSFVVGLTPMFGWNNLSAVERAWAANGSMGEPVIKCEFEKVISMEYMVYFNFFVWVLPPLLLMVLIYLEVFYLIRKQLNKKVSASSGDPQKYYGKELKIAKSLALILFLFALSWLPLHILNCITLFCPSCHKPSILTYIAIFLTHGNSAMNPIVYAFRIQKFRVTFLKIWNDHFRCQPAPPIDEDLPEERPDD
The experiment can be described thus: hA1AR binding. Particulars: for inhibition at 10 µM: read-out: binding inhibition at hA1AR (% at 10 μM).

Another experiment has as its target rat kidney TSPO (Rattus norvegicus, UniProt P16257). Nature of the experiment: Radioligand binding at TSPO. Particulars: for Ki: TSPO, rat TSPO, [3H]PK11195.
The target in a further experiment is hA2AAR (Homo sapiens, UniProt P29274). Nature of the experiment: hA2AAR binding. Particulars: read-out: binding inhibition at hA2AAR (% at 10 μM).
Experiment [1] deals with T3, KOR (Homo sapiens, UniProt P41145). The experiment can be described thus: biochemical. In kind it is binding. Conditions: for Ki: KOR, [3H]U69593, mean ± SEM, N = 2–4.
Another experiment has as its target hDAT (Homo sapiens, UniProt Q01959). Nature of the experiment: Radioligand binding at DAT. Particulars: 10 μM; [3H]WIN35428; negative = enhanced radioligand binding.
For experiment [2], the target named is T3, KOR. In kind it is cell-based.
A further experiment has as its target DOR (Homo sapiens, UniProt P41143). The experiment can be described thus: Radioligand binding at DOR.
A further experiment addresses MOR (Homo sapiens, UniProt P35372). Nature of the experiment: biochemical. In kind it is binding. Particulars: for MOR, inhibition of radioligand binding at 10 μM (class): Table 2.
For another experiment, the target named is T4, rat σ2 receptor (Rattus norvegicus, UniProt Q5U3Y7).
T4 sequence (Q5U3Y7 1-176): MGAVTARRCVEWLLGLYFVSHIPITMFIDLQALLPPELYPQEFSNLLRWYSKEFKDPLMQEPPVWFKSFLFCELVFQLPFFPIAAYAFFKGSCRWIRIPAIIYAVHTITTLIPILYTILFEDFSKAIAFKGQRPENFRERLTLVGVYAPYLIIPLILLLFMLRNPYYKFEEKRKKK
The experiment can be described thus: PDSP binding, σ2 receptor.

Sequence of hDAT (Q01959 whole entry): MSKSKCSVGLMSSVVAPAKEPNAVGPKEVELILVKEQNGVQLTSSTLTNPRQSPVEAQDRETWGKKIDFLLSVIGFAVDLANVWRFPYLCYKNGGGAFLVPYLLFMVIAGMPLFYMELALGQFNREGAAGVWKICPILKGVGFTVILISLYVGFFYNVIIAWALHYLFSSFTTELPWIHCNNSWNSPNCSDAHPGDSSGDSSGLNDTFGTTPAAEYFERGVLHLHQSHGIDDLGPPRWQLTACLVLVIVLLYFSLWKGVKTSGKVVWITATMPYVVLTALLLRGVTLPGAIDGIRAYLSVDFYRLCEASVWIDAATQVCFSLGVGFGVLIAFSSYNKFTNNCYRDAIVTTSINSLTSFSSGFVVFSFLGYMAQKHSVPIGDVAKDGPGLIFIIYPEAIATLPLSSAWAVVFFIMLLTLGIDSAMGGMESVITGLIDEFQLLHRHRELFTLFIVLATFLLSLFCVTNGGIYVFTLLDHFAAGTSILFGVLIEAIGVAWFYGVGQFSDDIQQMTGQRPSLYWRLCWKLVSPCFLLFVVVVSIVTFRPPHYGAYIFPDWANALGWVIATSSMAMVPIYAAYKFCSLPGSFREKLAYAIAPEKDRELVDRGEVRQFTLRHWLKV
Sequence of hA2AAR (P29274 whole entry): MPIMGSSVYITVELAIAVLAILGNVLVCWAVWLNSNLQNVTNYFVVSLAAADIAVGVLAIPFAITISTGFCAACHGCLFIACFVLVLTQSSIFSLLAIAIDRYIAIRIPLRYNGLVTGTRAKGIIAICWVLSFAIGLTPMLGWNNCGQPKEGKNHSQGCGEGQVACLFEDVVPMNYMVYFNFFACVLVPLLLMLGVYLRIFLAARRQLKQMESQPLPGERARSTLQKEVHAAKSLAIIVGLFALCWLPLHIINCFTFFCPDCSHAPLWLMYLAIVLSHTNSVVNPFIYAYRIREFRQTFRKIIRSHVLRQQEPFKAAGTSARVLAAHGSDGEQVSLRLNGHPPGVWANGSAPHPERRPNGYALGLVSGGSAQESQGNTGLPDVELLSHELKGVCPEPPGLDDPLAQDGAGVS
T3 sequence (P41145 whole entry): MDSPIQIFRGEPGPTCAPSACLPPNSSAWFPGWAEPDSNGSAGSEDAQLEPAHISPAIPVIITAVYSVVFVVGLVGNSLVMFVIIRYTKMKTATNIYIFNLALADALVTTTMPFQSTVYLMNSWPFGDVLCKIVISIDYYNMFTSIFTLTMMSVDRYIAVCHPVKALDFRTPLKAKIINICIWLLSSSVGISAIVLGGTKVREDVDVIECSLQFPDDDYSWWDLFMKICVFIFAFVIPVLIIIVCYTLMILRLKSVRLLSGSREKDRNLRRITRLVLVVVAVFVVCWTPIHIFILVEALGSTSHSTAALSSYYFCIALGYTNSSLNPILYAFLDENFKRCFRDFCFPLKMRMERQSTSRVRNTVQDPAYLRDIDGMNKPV
Sequence of rat kidney TSPO (P16257 whole entry): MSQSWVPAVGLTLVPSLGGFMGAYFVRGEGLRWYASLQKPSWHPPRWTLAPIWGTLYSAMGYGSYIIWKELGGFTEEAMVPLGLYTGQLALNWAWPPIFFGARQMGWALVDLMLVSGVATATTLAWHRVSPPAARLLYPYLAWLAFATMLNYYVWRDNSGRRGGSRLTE
Sequence of MOR (P35372 whole entry): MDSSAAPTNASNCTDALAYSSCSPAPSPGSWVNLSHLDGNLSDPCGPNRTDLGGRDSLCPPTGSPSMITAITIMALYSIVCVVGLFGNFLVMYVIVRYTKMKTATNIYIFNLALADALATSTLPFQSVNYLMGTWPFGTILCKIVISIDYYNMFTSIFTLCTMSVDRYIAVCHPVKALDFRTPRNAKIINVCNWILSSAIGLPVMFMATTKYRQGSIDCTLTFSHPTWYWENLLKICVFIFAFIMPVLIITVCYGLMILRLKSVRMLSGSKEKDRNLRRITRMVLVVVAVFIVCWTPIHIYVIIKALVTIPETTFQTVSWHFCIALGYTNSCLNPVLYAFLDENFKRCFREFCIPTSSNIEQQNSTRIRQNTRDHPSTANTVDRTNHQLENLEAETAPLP
Sequence of DOR (P41143 whole entry): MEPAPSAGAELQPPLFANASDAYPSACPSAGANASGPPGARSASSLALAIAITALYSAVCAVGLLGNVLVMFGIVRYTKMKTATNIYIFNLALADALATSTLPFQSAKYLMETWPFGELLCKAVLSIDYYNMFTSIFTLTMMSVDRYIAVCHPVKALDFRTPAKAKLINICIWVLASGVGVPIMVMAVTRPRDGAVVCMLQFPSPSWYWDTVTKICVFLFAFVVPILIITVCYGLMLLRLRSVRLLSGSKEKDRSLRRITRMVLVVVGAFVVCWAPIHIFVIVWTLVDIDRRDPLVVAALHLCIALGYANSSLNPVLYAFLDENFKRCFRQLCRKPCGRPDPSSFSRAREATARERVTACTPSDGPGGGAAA

In general, Ki refers to a dissociation constant, usually derived from enzyme kinetics or from competition with a known ligand. Broadly, the inhibition is the drop in the measured response relative to a control, in per cent. Turning to `CCOC(=O)[C@@]12C[C@@H]1[C@@H](n1ccc3c(NC)nc(C#Cc4ccccc4)nc31)[C@H](O)[C@@H]2O` [compound 40, Ethyl(1S,2R,3S,4R,5S)-2,3-dihydroxy-4-(4-(methylamino)-2-(phenylethynyl)-7H-pyrrolo[2,3-d]pyrimidin-7-yl)bicyclo[3.1.0]hexane-1-carboxylate], the Ki is 344 ± 40 nM on hA3AR; above 10000 nM on rat kidney TSPO; 91.5 ± 23.7 nM on KOR [1]; 1780 ± 410 nM on DOR; 1480 ± 450 nM at MOR. For the same molecule, the inhibition at 10 µM at hA1AR was determined as 35%; at hA2AAR, 22%. Further, the “DAT, inhibition, % of control at 10 μM” value at hDAT is reported as “–66%”. Further, the “βarrestin2 recruitment, Imax (% 120)” value on KOR [2] (antagonism of 1 μM U69593 98) worked out at 76 ± 2 % 120.

Regarding `Oc1ccc2c3c1O[C@H]1c4[nH]c5c(c4C[C@@]4(O)[C@@H](C2)N(CC2CC2)CC[C@]314)C[C@@]1(O)[C@H]2Cc3ccc(O)c4c3[C@@]1(CCN2CC1CC1)[C@H]5O4` [compound 120, Norbinaltorphimine, reference compound], the “βarrestin2 recruitment, Imax (% 120)” value at KOR [2] is recorded as 100 % 120.

For the molecule `O[C@@H]1[C@H](O)[C@@H]2C[C@@H]2[C@H]1n1ccc2c(NC(C3CC3)C3CC3)nc(C#Cc3ccccc3)nc21` [compound 56, (1R,2R,3S,4R,5S)-4-(4-((Dicyclopropylmethyl)amino)-2-(phenylethynyl)-7H-pyrrolo[2,3-d]pyrimidin-7-yl)bicyclo[3.1.0]hexane-2,3-diol], the Ki at hA3AR was determined as 178 ± 32 nM; at hA1AR, 650 nM; on rat kidney TSPO, 4210 ± 1840 nM; at rat σ2 receptor, 670 nM; at DOR, 2550 ± 660 nM; on MOR it was 1440 ± 750 nM. Also, the “KOR, inhibition of radioligand binding at 10 μM (class)” value on KOR [1] (Table 5, 10 μM) was “^d (30–50% inhibition of radioligand binding at 10 μM)”.

Regarding `CNC(=O)[C@@]12C[C@@H]1[C@@H](n1cnc3c(NCc4cccc(Cl)c4)nc(C#Cc4ccc(F)cc4)nc31)[C@H](O)[C@@H]2O` [compound 7], the inhibition at 10 µM at hA1AR turned out to be 22%. The same molecule came in with a Ki at rat kidney TSPO of around 300 nM. Besides, the “DAT, inhibition, % of control at 10 μM” value at hDAT was 21%.

For the molecule `CCCNc1nc(C#Cc2ccc(Cl)s2)nc2c1ncn2[C@H]1[C@H](O)[C@H](O)[C@]2(C(=O)NC)C[C@H]12` [compound 18], on hA1AR, the inhibition at 10 µM is 22%. The molecule further gave a Ki on rat kidney TSPO of 1310 ± 210 nM. Also, the “DAT, inhibition, % of control at 10 μM” value at hDAT is “–159%”. Moreover, at DOR (Table 1), the “DOR, inhibition of radioligand binding at 10 μM (class)” value (shortened to “DOR, inhibition of radioligand binding”) was “^e (30–50% inhibition of radioligand binding at 10 μM)”.

As for `CCOC(=O)[C@@]12C[C@@H]1[C@@H](n1ccc3c(NC4CC4)nc(C#Cc4ccccc4)nc31)[C@H](O)[C@@H]2O` [compound 41, Ethyl(1S,2R,3S,4R,5S)-4-(4-(cyclopropylamino)-2-(phenylethynyl)-7H-pyrrolo[2,3-d]pyrimidin-7-yl)-2,3-dihydroxybicyclo[3.1.0]hexane-1-carboxylate], the Ki was 228 ± 115 nM on hA3AR, 852 ± 137 nM on KOR [1], 2400 ± 90 nM at DOR and 2110 ± 590 nM on MOR. Besides, the inhibition at 10 µM is 44% on hA1AR and 25% on hA2AAR. On rat kidney TSPO (Table 2), the “TSPO, inhibition of radioligand binding at 10 μM (class)” value (from here on “TSPO, inhibition of radioligand binding”) is “^c (30–50% inhibition of radioligand binding at 10 μM)”. For the same molecule, the “DAT, inhibition, % of control at 10 μM” value on hDAT is “–312%”.

For `O[C@@H]1[C@H](O)[C@@H]2C[C@@H]2[C@H]1n1cnc2c(NCCc3ccccc3)nc(C#Cc3ccccc3Cl)nc21` [compound 52], the Ki on rat kidney TSPO came to 877 ± 368 nM; at rat σ2 receptor it was 1820 nM. Moreover, on hDAT, the “DAT, inhibition, % of control at 10 μM” value amounted to 7%. In addition, the “DOR, inhibition of radioligand binding” value on DOR (Table 4) is reported as “^f (30–50% inhibition of radioligand binding at 10 μM)”.

For `O[C@@H]1[C@H](O)[C@@H]2C[C@@H]2[C@H]1n1cnc2c(NCCc3ccccc3)nc(C#Cc3ccccc3)nc21` [compound 51], the “TSPO, inhibition of radioligand binding” value on rat kidney TSPO (Table 4) is on record as “^g (<30% inhibition of radioligand binding at 10 μM)”. Also, on rat σ2 receptor, the Ki was determined as 1480 nM. In addition, the “DAT, inhibition, % of control at 10 μM” value on hDAT turned out to be 24%. On DOR (Table 4), the “DOR, inhibition of radioligand binding” value is recorded as “^g (<30% inhibition of radioligand binding at 10 μM)”.

On to `CNc1nc(C#Cc2ccc(Cl)s2)nc2c1ncn2[C@H]1[C@H](O)[C@H](O)[C@]2(C(=O)OCCCc3ccccc3)C[C@H]12` [compound 37], for which the Ki on hA3AR was 132 ± 68 nM; at rat kidney TSPO, 1090 ± 290 nM; at KOR [1], 8920 ± 1080 nM. At hDAT, the “DAT, inhibition, % of control at 10 μM” value is given as below 20%. Also, the “DOR, inhibition of radioligand binding” value at DOR (Table 2) is given as “^d (<30% inhibition of radioligand binding at 10 μM)”. Moreover, the “MOR, inhibition of radioligand binding at 10 μM (class)” value at MOR is given as “^d (<30% inhibition of radioligand binding at 10 μM)”.

`CCOC(=O)[C@@]12C[C@@H]1[C@@H](n1ccc3c(NC)nc(I)nc31)[C@H](O)[C@@H]2O` [compound 39, Ethyl(1S,2R,3S,4R,5S)-2,3-dihydroxy-4-(2-iodo-4-(methylamino)-7H-pyrrolo[2,3-d]pyrimidin-7-yl)bicyclo[3.1.0]hexane-1-carboxylate]: the Ki is 390 ± 139 nM on hA3AR, 104 ± 35 nM on KOR [1] and 1590 ± 280 nM at DOR. On rat kidney TSPO (Table 2), the “TSPO, inhibition of radioligand binding” value was “^d (<30% inhibition of radioligand binding at 10 μM)”. Besides, the “DAT, inhibition, % of control at 10 μM” value at hDAT is below 10%. Besides, at KOR [2] (antagonism of 1 μM U69593 98), the “βarrestin2 recruitment, Imax (% 120)” value is reported as 77 ± 3 % 120. Also, the “MOR, inhibition of radioligand binding at 10 μM (class)” value at MOR is “^c (30–50% inhibition of radioligand binding at 10 μM)”.

As to `CCOC(=O)[C@@]12C[C@@H]1[C@@H](n1ccc3c(NCCc4ccccc4)nc(C#Cc4ccccc4)nc31)[C@@H]1OC(C)(C)O[C@@H]12` [compound 82, Ethyl(3aR,3bS,4aS,5R,5aS)-2,2-dimethyl-5-(4-(phenethylamino)-2-(phenylethynyl)-7H-pyrrolo[2,3-d]pyrimidin-7-yl)tetrahydrocyclopropa[3,4]cyclopenta[1,2-d][1,3]dioxole-3b(3aH)-carboxylate], the Ki on hA3AR was 905 ± 144 nM; at rat kidney TSPO, above 10000 nM; on KOR [1], 217 ± 100 nM; at DOR, 881 ± 158 nM; on MOR, above 10000 nM. The “DAT, inhibition, % of control at 10 μM” value at hDAT is reported as “–24%”.

Take `CCOC(=O)[C@@]12C[C@@H]1[C@@H](n1ccc3c(NCC4CC4)nc(C#Cc4ccccc4)nc31)[C@H](O)[C@@H]2O` [compound 42, Ethyl(1S,2R,3S,4R,5S)-4-(4-((cyclopropylmethyl)amino)-2-(phenylethynyl)-7H-pyrrolo[2,3-d]pyrimidin-7-yl)-2,3-dihydroxybicyclo[3.1.0]hexane-1-carboxylate]: the Ki at hA3AR worked out at 791 ± 433 nM; at rat kidney TSPO, 4470 ± 1330 nM; at rat σ2 receptor, 1110 nM; on KOR [1] it was 1400 ± 210 nM; on MOR, 1300 ± 530 nM. Further, the inhibition at 10 µM on hA1AR amounted to 34%; on hA2AAR, 20%. For the same molecule, the “DAT, inhibition, % of control at 10 μM” value at hDAT was “–13%”. At DOR (Table 2), the “DOR, inhibition of radioligand binding” value is given as “^c (30–50% inhibition of radioligand binding at 10 μM)”.
